Two compounds from publication PMC12259270, “Sensory neuron–expressed FGF13 controls nociceptive signaling in diabetic neuropathy models” (The Journal of Clinical Investigation, 2025) can be followed below.

One test concerns the target T1, FGF13 (Homo sapiens, UniProt Q92913).
T1 construct: Full-length FGF13-1b (aa 1-192) was subcloned into appropriate plasmids; made in house; host or cells: E. coli BL21 (DE3) pLys
T1 sequence (Q92913 1-192 isoform Q92913-2): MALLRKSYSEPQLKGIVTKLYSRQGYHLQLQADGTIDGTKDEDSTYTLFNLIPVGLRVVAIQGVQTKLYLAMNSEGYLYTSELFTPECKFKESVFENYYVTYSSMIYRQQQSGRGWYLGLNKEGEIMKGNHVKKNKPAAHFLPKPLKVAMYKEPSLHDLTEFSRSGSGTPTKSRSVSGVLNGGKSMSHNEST
The test can be described thus: Surface plasmon resonance (SPR), compound binding to FGF13. Conditions: for Kd: SPR. Here is the method: page 6: Split-luciferase Complementation Assay (LCA) Twenty-four hours post transfection, cells were trypsinized using TrypLE (Gibco; cat # 12604013), centrifuged […] plates (Greiner Bio -One; cat # 655073 ) at ~0.8 x 10^5 cells per well in 200 μl of medium. The cells were incubated for another 24 hours, and then the growth medium was replaced with 100 μl serum -free, phenol red -free DMEM/F-12 medium (Invitrogen). All compounds from the PW - and the ZL-series, including PW164 and […] medium and then cells were incubated for two hours. The bioluminescence reaction was initiated by injection of 100 μl of D -luciferin substrate (1.5 mg/ml dissolved in PBS) using a Synergy H4 multimode microplate reader (BioTek). Luminescence readings were initiated after 3 s of mild plate shaking and performed at 2 min intervals […] °C. Raw signal intensity was computed by averaging peak luminescence plus two adjacent time points. Normalized signal intensity was expressed as the percentage of mean signal intensity relative to per plate control […] Surface plasmon resonance (SPR) All SPR experiments were performed on a Biacore T100 (GE Healthcare). […] ([…]) , which was previously described (14) or purified FGF13 were immobilized on CM5 sensor chip using 10 mM sodium acetate buffer (pH 5.5) with Amine Coupling Kit (GE […] to the control channel of the chip. For each compound, stock solution (50 mM) was serially diluted from 300 to 1 […] Samples were injected over the chip for 60 s followed by […] page 7: […] The nonspecific responses (buffer alone) were extracted for injected compound or peptide from experimental sensograms before data analysis. Data was analyzed for kinetic properties using Biacore T100 Analysis software. Visually inspected sensograms/traces were used to calculate the equilibrium constant (KD): i. the maximal responses were plotted against the treated concentrations, and the steady state KD was calculated from the fitted saturation binding curve; ii. a kinetic analysis for all ligand/analyte interaction was obtained by using Langmuir 1:1 interaction fitting model (KD = koff/kon). RNA isolation from DRG Mouse surgical and experimental procedures employed were approved by the University of Texas Medical Branch Institutional Animal Care and Use Committee. Animals were sacrificed using carbon dioxide before confirmation of death, rather than cervical dislocation. Mouse lumbar dorsal root ganglia (L4 and L5) were dissected and collected in Buffer RLT Plus (RNeasy Plus Mini Kit, QIAGEN, cat. nos. 74136). RNA was isolated according to the protocol reported in the same kit. Quantitative reverse transcriptase PCR (qRT-PCR) RNA samples for real-time analysis were then quantified using a Nanodrop Spectrophotometer (Thermo Scientific). cDNA was generated from total RNA (1 μg) in a 20 μl reaction using the reagents of iScriptTM Reverse Transcription Supermix for RT-qPCR (Bio-Rad Laboratories, cat. 1708840). FGF13 gene expression was determined by qRT-PCR. qRT-PCR was performed in duplicate for each sample using 4 μl of cDNA in a total volume of 20 μl using the iTaq Universal SYBR Green Supermix (Bio-Rad, Hercules, CA, United States). All RT-PCR assays were run using the BioRad CFX384 Touch Real-Time PCR System (Bio-Rad, Hercules, CA, United States) with the following conditions: 95°[…]) repeated by 40 cycles and 4°C. […] The internal reference gene for SYBR Green assays was 18[NT] and 5'-CTC
(In general: Surface plasmon resonance follows binding to a sensor surface in real time, without labels.)

A further test relates to C57BL/6 mice. The test can be described thus: Thermal sensitivity (Hargreaves radiant heat) after intraplantar injection, mice without capsaicin. In kind it is in vivo, mouse. Here is the method: Experiments were performed on 6- to 12-week-old male C57BL/6 mice (The Jackson Laboratory, Bar Harbor, ME) housed in the AAALAC-accredited facility at the University of Texas Medical Branch. Mice were group-housed with up to 5 mice per cage on a 12-to-12-hour light–dark cycle and had access to water and food ad libitum. All protocols were approved by the Institutional Animal Care and Use Committee (IACUC) at the University of Texas Medical Branch and in accordance with the National Institutes of Health (NIH) guidelines.
PW164 and ZL192 were dissolved in DMSO and saline in a ratio of 1:10. 0.1% capsaicin (10% ethanol, 10% Tween-20 in saline; Sigma-Aldrich). All the compounds were injected at the center of the hind paw. The control group received a DMSO-saline mixture. […]
AAV2 viral particles packaged by the University of North Carolina Gene Therapy Core Facility (viral titer ranging […]
Before intrathecal injections in the lumbar region, mice were maintained in an anesthetizing box with 2% isoflurane to induce unconsciousness. Six microliters of viral vector were gently injected into the CSF through a 30-gauge needle with a Hamilton syringe in the lumbar area between vertebrae L4 and L5 by gently gripping the iliac crest of the mouse and inserting the needle with an angle of 45°. The correct procedure was confirmed by the mouse’s tail reflexiv e flick. […]
Assessment of thermal sensitivity
Plantar tests for thermal sensitivity were performed using the Hargreaves apparatus (Ugo Basile, Italy) in mice that were either naïve or received i.p. injection of capsaicin or test compound. A thermal stimulus, generated by an infrared-focused light source, invisible to the rodent, was applied through a glass pane, to the plantar surface of the hind paw of the animal. The response to this stimulus was considered the withdrawal of the stimulated paw (lifting and licking). Light intensity was set up at 30% and the cut-off at the 20 s. The final value of thermal withdrawal latency, expressed in seconds, was the average value of three consecutive trials. […]

Residues, ends and D or L forms follow the SMILES beside them. *: point of attachment. Cbz = O=C(OCc1ccccc1)*; NHPh = c1ccc(N*)cc1; OtBu = CC(C)(C)O*

As usually defined, the Kd is the constant that tells how readily two partners part at equilibrium. On to `CC(=O)N[C@@H](Cc1ccccc1)C(=O)N[C@@H](CC(C)C)C(=O)N1CCC[C@H]1C(=O)N[C@@H](CCCCN)C(=O)Nc1ccccc1` [ZL192] (Ac-FLPK-NHPh), for which the Kd on FGF13 was determined as 4 µM. Further, the “Figure 1C Right panel, Mean response versus concentration” value at FGF13 (concentration 3.12e-6) was determined as 10.5172; on FGF13 (concentration 6.25e-6), 11.7391; at FGF13 (concentration 1.25e-5), 12.5757; on FGF13 (concentration 2.5e-5) it was 14.2936; at FGF13 (concentration 5e-5), 15.3045; at FGF13 (concentration 7.5e-5), 16.2485. Moreover, the “Figure 1C Right panel, Mean response versus concentration” value is 18.1479 at FGF13 (concentration 0.0001); 20.366 at FGF13 (concentration 0.00015); 22.3345 at FGF13 (concentration 0.0002); 22.6291 on FGF13 (concentration 0.0003); 7.018 on FGF13 (concentration 7.80E-07). In addition, the “thermal hypersensitivity in AAV2-shFGF13 mice” value in the test with C57BL/6 mice (ZL192 0.18 mg/mL, i.pl.) was “absent”. For the same compound, in the test with C57BL/6 mice (ZL192 0.18 mg/mL, i.pl.), the “thermal sensitivity in AAV2-shCTRL mice” value was “caused mechanical and thermal hypersensitivity”. Besides, the thermal sensitivity entry in the test on C57BL/6 mice (naive WT mice, ZL192 i.pl. 0.06 or 0.18 mg/mL) was “also seen”.
`COC(=O)[C@@H](NC(=O)[C@H](CCC(=O)OC(C)(C)C)NC(=O)[C@H](CC(C)C)NC(=O)[C@@H]1CCCN1C(=O)OCc1ccccc1)C(C)C` [PW164] (Cbz-PLE(OtBu)V-OMe): on FGF13, the Kd is 21 ± 3 µM. Besides, the “thermal hindpaw withdrawal thresholds (latency), normal sensitivity” value with C57BL/6 mice (WT mice, i.pl., radiant heat test) is “Neither did PW164 affect thermal hindpaw withdrawal thresholds”.
